Experimental data published in patent US20110306579A1, “METHODS OF NEUROPROTECTION USING NEUROPROTECTIVE STEROIDS AND A VITAMIN D” (EMORY UNIVERSITY, priority 2009, published 2011).
Structures can show the parent of a compound that is named as a salt.

How the values were obtained:
[1] = target: T1, vitamin D binding protein (DBP) (Homo sapiens, UniProt P02774); conditions: cited from earlier work
T1 construct: host or cells: serum
T1 sequence (P02774 17-474): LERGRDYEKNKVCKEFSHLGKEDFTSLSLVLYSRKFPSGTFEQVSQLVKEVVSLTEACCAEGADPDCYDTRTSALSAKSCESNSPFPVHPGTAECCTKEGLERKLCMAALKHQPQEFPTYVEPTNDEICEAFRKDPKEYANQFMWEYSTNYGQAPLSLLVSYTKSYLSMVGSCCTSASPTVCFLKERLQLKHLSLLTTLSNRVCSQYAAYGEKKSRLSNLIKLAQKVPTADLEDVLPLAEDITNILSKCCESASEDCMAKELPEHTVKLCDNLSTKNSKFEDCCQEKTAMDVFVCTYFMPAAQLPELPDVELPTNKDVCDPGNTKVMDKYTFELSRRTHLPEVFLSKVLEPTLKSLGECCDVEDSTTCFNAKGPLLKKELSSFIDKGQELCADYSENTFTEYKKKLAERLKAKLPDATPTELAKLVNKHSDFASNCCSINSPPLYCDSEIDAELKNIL

[2] = system: 20-month old Fischer 344 rats; experiment: Cerebral edema analysis after cortical contusion brain injury; format: in vivo, rat; conditions: 4 mg/kg; for edema compared to subjects treated with vehicle: 24 hours post brain injury; for mean % difference edema: brain tissue 24 hours post brain injury, i.p. at 1 h, s.c. at 6 and 24 h
Method: The methodology used is described in VanLandingham et al., Neuropharmacology, 2006, 51, 1078-1085.
Sterile surgical procedures were used to prevent animal infection. Rats (20-month old Fischer 344 rats, which are the “human” equivalent of about 60 years old) were anesthetized and maintained on isoflurane and an equivalent amount of […] and O2 for 3 min prior to surgery. After brain contusion, O2 levels were doubled compared to […] and maintained through the reainder of the surgery procedure. A stereotaxic apparatus was used to stabilize the head in a horizontal position. Core body temperature was monitored and maintained at 37° C. using a Harvard homeothermic blanket (Harvard Apparatus, Holliston, Mass.). There was no direct measure used to deterct brain temperature. Blood oxygen and heart rate were maintained using a SurgiVet monitor (SurgiVet, Waukesha, Wis.) and maintained above 90% and 340 bpm respectively. A midline incision was made and the scalp retracted. A bilateral 6-mm craniotomy was performed with surgical drill centered at 3 mm rostral to bregma. The stainless steel impactor was positioned over the MFC at 3.0 mm A/P and 0.0 M/L. These coordinates represent the MFC as described by Paxinos and Watson (The Rat Brain in Stereotaxic Coordinates, Academic Press, San Diego, 1986). The cortical injury was induced using a pneumatically controlled device (Hoffman et al., J. Neurotrauma, 1994, 11, 417-431). Brain impact duration was 0.5 s. using a 5-mm impactor tip with a velocity set at 2.125 m/s and a cortical depth of 2 mm. Following the contusion, bleeding was halded and fascia and scalp were sutured shut. After surgery, animals were allowed to recover from anesthesia on a homeothermic heating blanket in a holding cage until awake. sham surgeries controlled for anesthesia and stress. All surgical procedures were the same, except that sham rates were not given a craniotomy or cortical injury. Previous studies using craniotomy as a control found no differences between shams with or without this procedure. (Goss et al., Pharmacol. Biochem. Behay. 2003, 76(2), 231-242).
These experimental solutions were then diluted 1:1 with sterile water for a final concentration of HBC of 22.5%.
All injections were done at the same time with brain harvesting at 24 h post-injury. Rats in each group were weightd prior to treatment to ensure proper dosage. The first injection at 1 h after surgery was given intraperitoneally to ensure rapid adsorption. All subsequent injections were made subcutaneously for gradual adsorption at 6 and 24 h. Injection times and neurosteroid doses were based on previous results of neurosteroid treatment (Roof et al., Twenty First Annual Meeting of the Society for Neuroscience, Miami Beach Fla., p. 191 and He et al., Exp. Neurol. 2004, 189, 404-412). The sterioids were dissolved in vehicle (22.5% 2-hydroxypropyl-b-cyclodextrin solution) at 4 mg/kg. The sham group received no treatment and injury control group received vehicle only.
At 24 h after traumatic brain injury flresh brains were extracted from the skull and the dorsal cerebrum was separated along the line of the lateral fissure. Four 3-mm coronal sections were cut rostral to caudal, placed in pre-weighed 1.5 mL tubes and re-weighed (wet weight). Tubes were then left uncapped and placed in a vacuum oven set at 60° C. with an atmospheric pressure of 0.3 for 48 h. Following tube recapping, the tissue samples were again weighed (dry weight). Cerebral edema (% water content) was determined as the difference in wet and dry weights divided by wet weight (Roof and Stein Restor. Neurol. Ncurosci., 1992, 4, 425-427). Edema measures are reflective of the difference inwater content between at the average of the two most rostral (injury region) segments and most caudal (occipital cortex) segments of the dorsal sections of the brain.

[3] = system: MAPK (ERK1/2); experiment: MAPK phosphorylation (p-ERK1/2 Western blot) in primary cortical neurons; format: cell-based, rat; conditions: VDH 100 nM, 30-minute treatment
Method: PROG and VDH were added to the primary cultures, as described above, for 30 minutes ([…], et al., (2002) Endocrinology 143: 205-212) and the cells were lysed using RIPA lysis buffer kit (sc-24948, Santa Cruz, Calif., USA). Protein was determined in cell lysates by bicinchoninic acid (BCA) protein assay (Cat. # 23225, Pierce, Rockford, Ill., USA). Cell lysates (40 μg protein each sample) were separated under reducing and denaturing conditions by 12.5% acrylamide Criterion gel (BioRad, Hercules, Calif., USA) at 200V for 1 hour and transferred to a polyvinylidene difluoride (PVDF) membrane at 100V for 30 minutes. The non-specific binding sites of the membrane were blocked with 5% non-fat dry milk in PBS-T (phosphate buffered saline containing 0.05% Tween-20). […] Membranes were then incubated in horseradish peroxidase (HRP)-conjugated secondary antibody (Goat anti-rabbit IgG; 074-1506, KPL, Gaithersburg, Md., USA). β-actin was probed as a loading control. Blots were developed using a chemiluminescent substrate (Pierce) for 5 minutes.

[4] = system: E18 rat primary cortical neurons; experiment: Morphological analysis of cortical cultures (phase contrast); format: cell-based; conditions: glutamate 0.5 μM for 24 h; data not shown
Description: Changes in the morphology of neurons treated with different drugs in various groups were observed using a phase-contrast microscope (Nikon). Primary cultures were mainly observed for neurite outgrowth, a hallmark feature of healthy cells, and the density of healthy cells in different groups.

[5] = system: E18 rat primary cortical neurons; experiment: Glutamate-induced excitotoxic cell death (LDH release and MTT reduction assays); format: cell-based
Description: Lactate dehydrogenase (LDH) release and 3-(4,5-dimethylthiazol-2-yl)-2,5-diphenyltetrazolium bromide (MTT) reduction assays were used to measure cell death. NeuroPureTM E18 primary rat cortical cells were commercially procured (Catalogue # N200200, Genlantis, San Diego, Calif., USA) as micro-surgically dissected regions from day 18 embryonic Sprague-Dawley rat brain. The tissues were processed for culturing according to manufacturer specifications. Briefly, enzymatic pre-treatment of the tissue was done prior to mechanical dissociation by incubating the tissues in sterile NeuroPapain enzyme solution at 30° C. for 30 minutes. Following incubation, the cells were centrifuged and transferred to fresh plating medium, where they were then dissociated into isolated neurons using a P-1000 pipettor with a sterile 1 ml plastic tip (0.8-1.0 mm diameter opening). The cells were again centrifuged and seeded in multi-well plates pre-coated with poly-D-lysine (0.15 ml/cm^2, 50 μg/ml) and maintained at 37° C. in a humidified 5% CO2 atmosphere. All experiments were performed after 9-10 days in culture. Twenty-four hours before glutamate exposure, cultures were pre-treated with both PROG (Cat. #P3972; Sigma Aldrich, St. Louis, Mo., USA) and VDH(Cat. #D1530; Sigma) separately or in combination with VDH at various concentrations. Stock solutions of PROG and VDH were prepared in dimethylsulfoxide (DMSO; Cat. #D2650; […] Glutamate was diluted in phosphate-buffered saline (PBS, pH 7.4). All reagents were filter sterilized before being added to cultures. At Day 11, cortical neurons in fresh media were separated into five treatment groups: (i) control; (ii) 24 hour treatment with 0.5 μM glutamate (Sribnick E A, et al., (2004) J Neurosci Res 76: 688-696); ([…]) with subsequent exposure to glutamate for 24 hours; (iv) 24 hour pre-treatment with VDH (1, 5, 10, 20, 40, 80, 100 nM) with subsequent exposure to glutamate for 24 hours; (v) 24 hour pre-treatment with different combinations of PROG and […]: 20 μM+VDH: 1, 5, 10, 20, 40, 80, 100 nM) with subsequent exposure to glutamate for 24 hours. Two widely accepted assays (LDH release and MTT reduction assay) for the measurement of cell viability were used. These assays are considered very reliable and reproducible with high predictive validity and are widely used in various pharmacological studies ([…], et al., (2002) Endocrinology 143: 205-212.). The LDH assay was performed as follows. […] LDH activity was measured using a Cytotoxicity Detection Kit (Roche Molecular Biochemicals, Indianapolis, Ind., USA) and quantitated by measuring absorbance at 490 nm. Data were normalized against the amount of LDH activity released from vehicle-treated control cultures receiving no glutamate. Neuronal death was also assessed by MTT [3-(4,5-dimethylthiazol-2-yl)-2,5-diphenyltetrazolium bromide] assay, which is based on the cleavage of the tetrazolium ring of the pale yellow MTT into dark blue formazan crystals by mitochondrial dehydrogenase enzyme in viable cells. These blue formazan crystals accumulate within the cells due to their impermeability to cell membrane, and are then solubilized by adding DMSO. The intensity of blue colored formazan solution is directly proportional to the number of surviving cells. Concentrations were determined by photometric analysis. Briefly, 10 μl of MTT were added per well and incubated at 37° C. for 4 hours until purple precipitate was visible. DMSO (50 μl) was added to solubilize the crystals and the absorbance was read at 570 nm.

[6] = system: 20-month-old male Fischer 344 rats; experiment: Spontaneous locomotor activity (open field) after TBI; format: in vivo, rat; conditions: 72 hours after injury; normalized to sham
Description: The animals in this study were separated into two groups, vitamin D normal (D-normal) and vitamin D deficient (D-deficient). […] Animals in the D-deficient group were maintained on the diet for at least 21 days prior to surgery. […] For this same reason the null diet was not altered in any other way, and the rats assigned to the D-deficient group were maintained on it until they were killed for harvesting of brain tissue. Since vitamin D is activated by UVB light (280-315 nm wavelength), the overhead lights were modified to not produce radiation in this range.
Animals dehydrated due to blood loss were given 3 mL of lactated Ringer's solution subcutaneously within 6 hours of injury.
Animals were assigned to D-normal or D-deficicnt groups. […] The same assignment was followed for both 24-hour and 72-hour survival groups. […] All drug treatments were dissolved in vehicle, and injection volume was equally proportional to each animal's weight across all groups. The intact sham (SHAM) groups served to provide baseline data and therefore received no injury or injections.
In addition to molecular measures of inflammatory cytokines, the behavioral effects of the various treatments were examined. Since this study was limited to the short term effects on inflammation, only short-term Spontaneous Locomotor Activity was used.

[7] = Phase 1 and Phase 2 human trials; cited from earlier work
[8] = system: rat model of peripheral nerve injury; conditions: 100 IU/kg/day following nerve injury; cited from earlier work

In the case of `C=C1CC[C@H](O)C/C1=C/C=C1\CCC[C@]2(C)[C@@H]([C@H](C)CCCC(C)(C)O)CC[C@@H]12` [Compound 25OHD3, 25-hydroxyvitamin D3], the “fraction of total in serum bound by DBP” value [1] is given as “about 88%”.
In the case of `CC(=O)[C@H]1CCC2C3CCC4=C[C@@H](OC(=O)[C@@H](N)C(C)C)CC[C@]4(C)C3CC[C@@]21C` (stereo partly drawn) [Compound 31, 3β-L-Valine-progesterone-HCl], the “edema compared to subjects treated with vehicle” value [2] is reported as “decrease in edema” and the “mean % difference edema” value [2] is reported as 2.2%.
In the case of `CC(C)[C@H](N)C(=O)O[C@@H](C)[C@H]1CCC2C3CCC4=CC(=O)CC[C@]4(C)C3CC[C@@]21C` (stereo partly drawn) [Compound 57, 20-S-L-Valine-progesterone HCl salt], the “edema compared to subjects treated with vehicle” value [2] is reported as “decrease in edema” and the “mean % difference edema” value [2] is reported as 3.3%.
In the case of `CC(=O)[C@H]1CCC2C3CCC4=C/C(=N/OC(=O)[C@@H](N)Cc5c[nH]c6ccccc56)CC[C@]4(C)C3CC[C@@]21C` (stereo partly drawn) [Compound 79, O-L-Tryptophan-C3-oxime-progesterone HCl salt], the “edema compared to subjects treated with vehicle” value [2] is reported as “decrease in edema” and the “mean % difference edema” value [2] is reported as 1.9%.
In the case of `C=C1/C(=C\C=C2/CCC[C@]3(C)[C@@H]([C@H](C)CCCC(C)(C)O)CC[C@@H]23)C[C@@H](O)C[C@@H]1O` [VDH, 1,25-dihydroxyvitamin D3], the “increase in p-ERK1/2 level compared to control group” value [3] is reported as 1.7 ×, the “morphology of neurons (neuronal processes, number of neurons) after glutamate” value [4] is reported as “rescued neurons” and the “best (most effective) concentration alone against glutamate-induced neuronal death” value ([5]; LDH and MTT assays) is reported as 0.1 µM. For the same compound, the “shape of concentration response curve for neuroprotection against glutamate toxicity” value ([5]; VDH alone, or PROG 20 μM with VDH 1-100 nM) was “U-shaped”, the “neuroprotection against glutamate toxicity compared to vehicle-only group” value ([5]; VDH higher concentrations (1-10 μM)) was “did not prevent neuronal loss” and the “neuroprotection against glutamate toxicity compared to vehicle-only group” value ([5]; VDH lower concentrations (0.001-0.5 μM), P<0.001) was “significantly protective”. For the same compound, the “spontaneous locomotor activity (total distance, resting, stereotypy, movement time)” value [6] was “little or no benefit”.
In the case of `CC(=O)[C@H]1CC[C@H]2[C@@H]3CC[C@H]4C[C@](C)(O)CC[C@]4(C)[C@H]3CC[C@]12C` [ganaxolone, 3a-hydroxy-3b-methyl-5a-pregnan-20-one], the tolerability [7] is listed as “well tolerated”.
For `C=C1CC[C@H](O)C/C1=C/C=C1\CCC[C@]2(C)[C@@H]([C@H](C)/C=C/[C@H](C)C(C)C)CC[C@@H]12` [vitamin D2, ergocalciferol], the “axogenesis and axon diameter” value [8] is listed as “significantly increased axogenesis and axon diameter”.
